Experimental data published in patent US9302999B2, “Substituted triazoles as herbicides” (E. I. DU PONT DE NEMOURS AND COMPANY, priority 2012, dated 2016).

Key:
Format in all cases: in vivo
[1] = tested on: canarygrass (Phalaris minor); experiment: Test D pre-/postemergence: canarygrass
Text: (§1) Seeds of plant species selected from bluegrass (annual bluegrass, Poa annua), blackgrass (Alopecurus myosuroides), canarygrass (Phalaris minor), chickweed (common chickweed, Stellaria media), galium (catchweed bedstraw, Galium aparine), bromegrass, downy (downy bromegrass, Bromus tectorum), field poppy (Papaver rhoeas), field violet (Viola arvensis), foxtail, green (green foxtail, Setaria viridis), deadnettle (henbit deadnettle, Lamium amplexicaule), ryegrass, Italian (Italian ryegrass, Lolium multiflorum), kochia (Kochia scoparia), lambsquarters (Chenopodium album), oilseed rape (Brassica napus), pigweed (Amaranthus retroflexus), Russian thistle (Salsola iberica), chamomile (scentless chamomile, Matricaria inodora), speedwell (bird's-eye speedwell, Veronica persica), barley, spring (spring barley, Hordeum vulgare), wheat, spring (spring wheat, Triticum aestivum), buckwheat, wild (wild buckwheat, Polygonum convolvulus), mustard, wild (wild mustard, Sinapis arvensis), oat, wild (wild oat, Avena fatua), radish, wild (wild radish, Raphanus raphanistrum), windgrass (Apera spica-venti), barley, winter (winter barley, Hordeum vulgare), and wheat, winter (winter wheat, Triticum aestivum) were planted into a silt loam soil and treated preemergence with test chemicals formulated in a non-phytotoxic solvent mixture which included a surfactant. At the same time, these same crop and weed species were planted in pots containing the planting medium comprising spaghnum peat moss, vermiculite, wetting agent and starter nutrients and treated with postemergence applications of the test chemicals formulated in the same manner. Plants ranged in height from 2 to 18 cm (1- to 4-leaf stage).
(§2) Treated plants and controls were maintained in a controlled growth environment for 14 to 21 days after which time all species were compared to controls and visually evaluated. Plant response ratings, summarized in Table D, are based on a scale of 0 to 100 where 0 is no effect and 100 is complete control. A dash (-) response means no test result.

[2] = tested on: field violet (Viola arvensis); experiment: Test D pre-/postemergence: field violet
Text: as §1, §2

[3] = tested on: speedwell (bird's-eye speedwell, Veronica persica); experiment: Test D pre-/postemergence: speedwell
Text: as §1, §2

soybean (Glycine max) = experiment: Test F pre-/postemergence: soybean; conditions: Postemergence, scale 0 to 100
Text: Seeds of plant species selected from corn (Zea mays), soybean (Glycine max), velvetleaf (Abutilon theophrasti), lambsquarters (Chenopodium album), poinsettia, wild (wild poinsettia, Euphorbia heterophylla), pigweed, palmer (palmer pigweed, Amaranthus palmeri), waterhemp (common waterhemp, Amaranthus rudis), surinam grass (Brachiaria decumbens), crabgrass, Brazil (Brazilian crabgrass, Digitaria horizontalis), panicum, fall (fall panicum Panicum dichotomiflorum), crabgrass, large (large crabgrass, Digitaria sanguinalis), foxtail, giant (giant foxtail, Setaria faberii), foxtail, green (green foxtail Setaria viridis), goosegrass (Eleusine indica), ragweed (common ragweed, Ambrosia elatior), barnyardgrass (Echinochloa crus-galli), sandbur (southern sandbur, Cenchrus echinatus), arrowleaf sida (Sida rhombifolia), ryegrass, Italian (Italian ryegrass, Lolium multiflorum), dayflower, VA (Virginia (VA) dayflower, Commelina virginica), field bindweed (Convolvulus arvensis), cocklebur (common cocklebur, Xanthium strumarium), morningglory (Ipomoea coccinea), nightshade (eastern black nightshade, Solanum ptycanthum), kochia (Kochia scoparia), nutsedge, yellow (yellow nutsedge, Cyperus esculentus), johnsongrass (Sorghum halepense), smartweed (ladysthumb smartweed, Polygonum persicaria), and beggarticks (hairy beggarticks, Bidens pilosa), were planted into a silt loam soil and treated preemergence with test chemicals formulated in a non-phytotoxic solvent mixture which included a surfactant. At the same time, plants selected from these crop and weed species and also pigweed (Amaranthus retroflexus), waterhemp_RES1 (ALS/Triazine resistant common waterhemp, Amaranthus rudis) and waterhemp_RES2 (ALS/HPPD resistant common waterhemp, Amaranthus rudis) were planted in pots containing a planting medium comprising spaghnum peat moss, vermiculite, wetting agent and starter nutrients treated with postemergence applications of some of the test chemicals formulated in the same manner. Plants ranged in height from 2 to 18 cm for postemergence treatments (1- to 4-leaf stage).
as §2, with “greenhouse” for “controlled growth environment”, “days,” for “days”, “E,” for “D,”

[4] = Postemergence, 31 g ai/ha, scale 0 to 100 (0 no effect, 100 complete control)
[5] = Postemergence, 62 g ai/ha, scale 0 to 100 (0 no effect, 100 complete control)
[6] = Postemergence, 125 g ai/ha, scale 0 to 100, 0 no effect, 100 complete control
[7] = Postemergence, 250 g ai/ha, scale 0 to 100 (0 no effect, 100 complete control)
[8] = Postemergence, 16 g ai/ha, scale 0 to 100
[9] = Preemergence, 31 g ai/ha, scale 0 to 100, 0 no effect, 100 complete control
[10] = Preemergence, 62 g ai/ha, scale 0 to 100
[11] = Preemergence, 125 g ai/ha, scale 0 to 100
[12] = Preemergence, 250 g ai/ha, scale 0 to 100
[13] = Preemergence, 16 g ai/ha, scale 0 to 100, 0 no effect, 100 complete control

SMILES | Plant response rating: Canarygrass [1, 4] | Plant response rating: Canarygrass [1, 5] | Plant response rating: Canarygrass [1, 6] | Plant response rating: Canarygrass [1, 7] | Plant response rating, Canarygrass [1, 8] | Plant response rating: Field Violet [2, 4] | Plant response rating: Field Violet [2, 5] | Plant response rating: Field Violet [2, 6] | Plant response rating: Field Violet [2, 7] | Plant response rating, Field Violet [2, 8] | Plant response rating: Speedwell [3, 4] | Plant response rating: Speedwell [3, 5] | Plant response rating: Speedwell [3, 6] | Plant response rating: Speedwell [3, 7] | Plant response rating, Speedwell [3, 8] | Plant response rating, Canarygrass [1, 9] | Plant response rating, Canarygrass [1, 10] | Plant response rating, Canarygrass [1, 11] | Plant response rating, Canarygrass [1, 12] | Plant response rating, Field Violet [2, 9] | further results
Cc1nn(-c2ccc(C(F)(F)F)cn2)nc1Oc1ccnc(C(F)(F)F)c1 [Compound 23] | 15 | 20 | 25 | 30 | 10 | 40 | 50 | 70 | 80 | 20 | 10 | 20 | 50 | 60 | 5 | – | – | – | – | – | –
FC(F)(F)COc1nn(-c2ccc(C(F)(F)F)cc2)nc1Cc1ccnc(C(F)(F)F)c1 [Compound 14, 4-[[5-(2,2,2-trifluoroethoxy)-2-[4-(trifluoromethyl)phenyl]-2H-1,2,3-triazol-4-yl]methyl]-2-(trifluoromethyl)pyridine] | 25 | 40 | 55 | 80 | – | 100 | 100 | 100 | 100 | – | 100 | 100 | 100 | 100 | – | 10 | 25 | 90 | 98 | 75 | Plant response rating, Field Violet [2, 10]: 90; Plant response rating, Field Violet [2, 11]: 95; Plant response rating, Field Violet [2, 12]: 95; Plant response rating, Speedwell [3, 9]: 100; Plant response rating, Speedwell [3, 10]: 100; Plant response rating, Speedwell [3, 11]: 100; Plant response rating, Speedwell [3, 12]: 100
Cc1nn(-c2ccnc(Cl)c2)nc1Cc1ccnc(C(F)(F)F)c1 [Compound 141] | – | – | – | – | – | – | – | – | – | – | – | – | – | – | – | – | – | – | – | – | Plant response rating, Soybean (soybean (Glycine max); 8 g ai/ha): 50; Plant response rating, Soybean (soybean (Glycine max); 16 g ai/ha): 70; Plant response rating, Soybean (soybean (Glycine max); 31 g ai/ha): 80; Plant response rating, Soybean (soybean (Glycine max); 125 g ai/ha): 85
COc1nn(-c2ccc(C(F)(F)F)cc2)nc1Cc1ccnc(C(F)(F)F)c1 [Compound 15, 4-[[5-methoxy-2-[4-(trifluoromethyl)phenyl]-2H-1,2,3-triazol-4-yl]methyl]-2-(trifluoromethyl)pyridine] | 35 | 40 | 50 | 80 | 25 | 100 | 100 | 100 | 100 | 80 | 100 | 100 | 100 | 100 | 100 | 25 | 80 | 90 | 100 | – | –
COc1nn(-c2ccc(C(F)(F)F)cc2)nc1Cc1ccnc(C(F)F)c1 [Compound 138] | 25 | 30 | 50 | 80 | 10 | 70 | 75 | 85 | 90 | 60 | 80 | 90 | 98 | 100 | 80 | – | – | – | – | – | –
Cc1nn(-c2ccc(C(F)(F)F)cc2)nc1Oc1ccnc(C(F)(F)F)c1 [Compound 120] | 5 | 20 | 90 | 95 | 0 | 70 | 100 | 100 | 100 | 70 | 100 | 100 | 100 | 100 | 60 | 90 | 100 | 100 | 100 | 90 | Plant response rating, Canarygrass [1, 13]: 0; Plant response rating, Field Violet [2, 13]: 75; Plant response rating, Field Violet [2, 10]: 95; Plant response rating, Field Violet [2, 11]: 100; Plant response rating, Field Violet [2, 12]: 100; Plant response rating, Speedwell [3, 13]: 0
Cc1nn(-c2ccc(F)c(C(F)(F)F)c2)nc1Cc1ccnc(C(F)(F)F)c1 [Compound 156] | 30 | 65 | 80 | – | 15 | 95 | 95 | 95 | – | 95 | – | – | – | – | – | 70 | 100 | 100 | – | 95 | Plant response rating, Canarygrass [1, 13]: 15; Plant response rating, Field Violet [2, 13]: 60; Plant response rating, Field Violet [2, 10]: 100; Plant response rating, Field Violet [2, 11]: 100; Plant response rating, Speedwell [3, 13]: 10; Plant response rating, Speedwell [3, 9]: 100; Plant response rating, Speedwell [3, 10]: 100; Plant response rating, Speedwell [3, 11]: 100
Cc1nn(-c2ccc(C(F)(F)F)cn2)nc1Cc1cccc(C(F)(F)F)c1 [Compound 106] | 5 | 10 | 20 | 30 | 5 | 70 | 70 | 85 | 100 | 70 | 0 | 0 | 90 | 90 | 0 | 0 | 0 | 0 | 0 | – | –
